Data set [1] has as its system Human Breast Adenocarcinoma Cell Line MDA-MB-231. Kind of data set: Drug cytotoxicity testing (viable cell count, trypan blue exclusion, cell growth inhibition). To be noted: for inhibition at 0.1 µM / inhibition at 0.01 µM / inhibition at 0.001 µM: Homo sapiens; for cell growth inhibition in (A) compared to compound in B / cell growth inhibition reached on increase of the concentration, in (B): sodium salt, range 10^-9 to 10^-7 M; for cell growth inhibition reached on increase of the concentration, in (B): dilution in normal saline (B). The format is cell-based. A digest of the protocol: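 A549 cells (10 × 10^3/well) and MDA-MB-231 cells (12 × 10^3/well) were left to adhere for 24 h, then exposed to drugs in medium with 5% FBS for 2 days. Viable cells were counted by trypan blue exclusion after trypsinization. Growth inhibition (%) = (control − test)/control × 100, from three determinations in six replicates each.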

For data set [2], the system named is Human Lung Carcinoma Cell Line A549. Described as above. The format is cell-based.
The conditions of data set [3]: rat, in vivo, ip; for mortality: 100 mg/kg.
Experimental: A single dose i.p. toxicity study in rats was carried out. […] The minimal lethal dose is thus above 100 mg/kg body weight for these compounds.
The mark [4] stands for this setting: MDA-MB-231, 48 h, compound alone, final concentration 10^-7 mol/L, working solutions in MEM with 5% FBS, two days, read-out: cell growth inhibition.
Setting [5] is: MDA-MB-231, 48 h, compound alone, final concentration 10^-8 mol/L, working solutions in MEM with 5% FBS, two days, read-out: cell growth inhibition.
[6] abbreviates: MDA-MB-231, 48 h, compound alone, final concentration 10^-9 mol/L, working solutions in MEM with 5% FBS, two days, read-out: cell growth inhibition.
Setting [7] is: MDA-MB-231, compound alone 10^-7 mol/L, in A (saline with […] CaCl2), read-out: cell growth inhibition.
The mark [8] stands for this setting: MDA-MB-231, compound alone 10^-7 mol/L, in B (normal saline), read-out: cell growth inhibition.
The mark [9] stands for this setting: MDA-MB-231, compound alone 10^-7 mol/L, read-out: Cell growth inhibition in A compared to that in B was increased by.
The mark [10] stands for this setting: MDA-MB-231, compound alone 10^-8 mol/L, in A (saline with […] CaCl2), read-out: cell growth inhibition.
Setting [11] is: MDA-MB-231, compound alone 10^-8 mol/L, in B (normal saline), read-out: cell growth inhibition.
[12] abbreviates: MDA-MB-231, compound alone 10^-8 mol/L, read-out: Cell growth inhibition in A compared to that in B was increased by.
Where [13] appears, read: MDA-MB-231, compound alone 10^-9 mol/L, in A (saline with […] CaCl2), read-out: cell growth inhibition.
Where [14] appears, read: MDA-MB-231, compound alone 10^-9 mol/L, in B (normal saline), read-out: cell growth inhibition.
[15] abbreviates: MDA-MB-231, compound alone 10^-9 mol/L, read-out: Cell growth inhibition in A compared to that in B was increased by.
[16] abbreviates: compound alone 10^-7 mol/L, in B (normal saline).
The mark [17] stands for this setting: compound alone 10^-8 mol/L, in B (normal saline).
The mark [18] stands for this setting: compound alone 10^-9 mol/L, in B (normal saline).
Where [19] appears, read: compound alone, final concentration 10^-7 mol/L, working solutions in MEM with 5% FBS, two days.
The mark [20] stands for this setting: compound alone, final concentration 10^-8 mol/L, working solutions in MEM with 5% FBS, two days.
The mark [21] stands for this setting: compound alone, final concentration 10^-9 mol/L, working solutions in MEM with 5% FBS, two days.

Where two headings read alike, the source gives them in different places.

One may read the inhibition as how much of the control response was suppressed.

In the case of `COC(=O)[C@H](CS(=O)(=O)O)NC(=O)\C=C(C)/C=C/C=C(C)/C=C/C1=C(C)CCCC1(C)C` [compound II-1a, N-(13-cis-retinoyl)-L-cysteic acid methyl ester], the inhibition at 0.1 µM in data set [1] (setting [4]) turned out to be 46.5%; in data set [1] (setting [7]) it was 48.9%; in data set [1] (setting [8]) it was 40.5%; in data set [1] (setting [9]), 14.1%; in data set [2] (Homo sapiens, A549, compound alone 10^-7 mol/L, in A (saline with […] CaCl2)), 34.4%; in data set [2] (Homo sapiens, A549, compound alone 10^-7 mol/L, in B (normal saline)) it was 25.6%. For the same compound, the inhibition at 0.01 µM in data set [1] (setting [5]) was 44.1%; in data set [1] (setting [10]), 41.7%; in data set [1] (setting [11]) it was 31.2%; in data set [1] (setting [12]) it was 15.2%; in data set [2] (Homo sapiens, A549, compound alone 10^-8 mol/L, in A (saline with […] CaCl2)), 26.9%; in data set [2] (Homo sapiens, A549, compound alone 10^-8 mol/L, in B (normal saline)), 15.6%. The inhibition at 0.001 µM in data set [1] (setting [6]) worked out at 38.8%; in data set [1] (setting [13]) it was 35.8%; in data set [1] (setting [14]) it was 23%; in data set [1] (setting [15]), 16.6%; in data set [2] (Homo sapiens, A549, compound alone 10^-9 mol/L, in A (saline with […] CaCl2)), 20.4%; in data set [2] (Homo sapiens, A549, compound alone 10^-9 mol/L, in B (normal saline)), 7.2%. In addition, the “number of viable cells” value in data set [1] (setting [16]) was 34.1 ± 1.97 × 10^3; in data set [1] (setting [17]), 39.4 ± 2.28 × 10^3; in data set [1] (setting [18]) it was 44.1 ± 2.24 × 10^3; in data set [1] (setting [19]), 31.3 ± 2.15 × 10^3; in data set [1] (setting [20]), 32.7 ± 2.06 × 10^3; in data set [1] (setting [21]) it was 35.8 ± 2.50 × 10^3. Further, the “number of viable cells” value in data set [2] (setting [16]) was 41.5 ± 1.80 × 10^3; in data set [2] (setting [17]), 47.1 ± 1.43 × 10^3; in data set [2] (setting [18]), 51.8 ± 2.48 × 10^3. The “cell growth inhibition in (A) compared to compound in B” value in data set [1] was around 14%; in data set [2] (sodium salt, range 10^-9 to 10^-7 M), around 12%. For the same compound, the increase in cell growth inhibition in A over B at 0.1 µM in data set [2] (Homo sapiens, A549, compound alone 10^-7 mol/L, read-out: Cell growth inhibition in A compared to that in B was increased by) was 11.8%. Besides, the increase in cell growth inhibition in A over B at 0.01 µM in data set [2] (Homo sapiens, A549, compound alone 10^-8 mol/L, read-out: Cell growth inhibition in A compared to that in B was increased by) amounted to 13.4%. In data set [2] (Homo sapiens, A549, compound alone 10^-9 mol/L, read-out: Cell growth inhibition in A compared to that in B was increased by), the increase in cell growth inhibition in A over B at 0.001 µM came to 14.3%. Further, in data set [2] (sodium salt, range 10^-9 to 10^-7 M, dilution in normal saline (B)), the “cell growth inhibition reached on increase of the concentration, in (B)” value (“cell growth inhibition reached on increase … (B)” for short) was around 26%. In addition, the minimal lethal dose result in data set [3] is “above 100 mg/kg body weight”. In addition, the mortality entry in data set [3] is recorded as “did not produce mortality”.
On to `CCOC(=O)[C@H](CCS(=O)(=O)O)NC(=O)\C=C(C)/C=C/C=C(C)/C=C/C1=C(C)CCCC1(C)C` [compound II-3b, N-(13-cis-retinoyl)-L-homocysteic acid ethyl ester], for which the inhibition at 0.1 µM came out at 62.1% in data set [1] (setting [4]), 60.5% in data set [1] (setting [7]), 44.4% in data set [1] (setting [8]) and 28.9% in data set [1] (setting [9]). The inhibition at 0.01 µM in data set [1] (setting [5]) came to 55.4%; in data set [1] (setting [10]), 53.6%; in data set [1] (setting [11]) it was 35.7%; in data set [1] (setting [12]) it was 27.8%. In addition, the inhibition at 0.001 µM in data set [1] (setting [6]) turned out to be 47.8%; in data set [1] (setting [13]) it was 46%; in data set [1] (setting [14]) it was 25.3%; in data set [1] (setting [15]) it was 27.8%. The “number of viable cells” value is given as 30.8 ± 1.60 × 10^3 in data set [1] (setting [16]); 35.6 ± 1.97 × 10^3 in data set [1] (setting [17]); 41.4 ± 2.15 × 10^3 in data set [1] (setting [18]); 21.4 ± 0.88 × 10^3 in data set [1] (setting [19]); 25.2 ± 1.27 × 10^3 in data set [1] (setting [20]); 29.5 ± 1.21 × 10^3 in data set [1] (setting [21]). For the same compound, the “cell growth inhibition in (A) compared to compound in B” value in data set [1] is given as around 29%. Also, the “cell growth inhibition reached on increase … (B)” value in data set [1] was around 44%. The minimal lethal dose entry in data set [3] is listed as “above 100 mg/kg body weight”. In data set [3], the mortality entry is on record as “did not produce mortality”.
As for `CC1=C(/C=C/C(C)=C/C=C/C(C)=C/C(=O)N[C@@H](CS(=O)(=O)O)C(=O)O)C(C)(C)CCC1` [compound I-1, N-(all-trans-Retinoyl)-L-cysteic acid], the inhibition at 0.1 µM in data set [1] (setting [7]) stood at 41.5%; in data set [1] (setting [8]) it was 31.3%; in data set [1] (setting [9]) it was 14.8%. Also, the inhibition at 0.01 µM in data set [1] (setting [10]) was determined as 40.2%; in data set [1] (setting [11]) it was 29.7%; in data set [1] (setting [12]), 15%. The values for the inhibition at 0.001 µM in data set [1] (setting [13]), in data set [1] (setting [14]) and in data set [1] (setting [15]) were 36.9%, 24.8% and 16.1%, respectively. Further, the entries for the “number of viable cells” value in data set [1] (setting [16]), in data set [1] (setting [17]) and in data set [1] (setting [18]) were 39.1 ± 1.41 × 10^3, 40.0 ± 1.35 × 10^3 and 42.8 ± 1.56 × 10^3, respectively. Further, in data set [1], the “cell growth inhibition reached on increase … (B)” value is around 31%. The minimal lethal dose result in data set [3] was “above 100 mg/kg body weight”.
